Data set [1] in a line: In vitro metabolic stability in cryopreserved human hepatocytes. To be noted: 1 μM test compound. In kind it is in vitro ADME. On the procedure:
Investigation of In Vitro Metabolic Stability in Cryopreserved Human Hepatocytes (Including Calculation of Hepatic In Vivo Blood Clearance (CL) and Maximal Oral Bioavailability (Fmax))
Cryopreserved Hepatocytes (e.g. purchased from Celsis InVitroTechnologies) were briefly thawed, washed with 45 mL pre-warmed in in vitro GRO HT medium and centrifuged for 5 min at 50×g. The cell pellet was resuspended in 5 ml of Krebs-Henseleit […] (KHB). Cell viability was determined by trypan blue exclusion.
For the metabolic stability assay liver cells were distributed in WME containing 5% FCS to glass vials at a density of 1.0×10^6 vital cells/ml. The test compound was added to a final concentration of 1 μM. During incubation, the hepatocyte suspensions were continuously shaken at 580 rpm and aliquots were taken at 2, 8, 16, 30, 45 and 90 min, to which equal volumes of cold methanol were immediately added. Samples were frozen at −20° C. over night, after subsequently centrifuged for 15 minutes at 3000 rpm and the supernatant was analyzed with an Agilent 1290 HPLC-system with LCMS/MS detection.
The half-life of a test compound was determined from the concentration-time plot. From the half-life the intrinsic clearances were calculated. […] The hepatic in vivo blood clearance (CL) and the maximal oral bioavailability (Fmax) was calculated.

For the next data set, the system named is SKMEL3. Put plainly: Cell proliferation measurement (Cell Titer Glo, 72 h). To be noted: Homo sapiens, SK-MEL3, SKMEL3, melanoma. The class given is cell-based. On the procedure:
(§1) The antiproliferative activity of the compounds of the general formula (I) was examined in vitro in human cancer cells. For this purpose, 1000 cells were plated in 384-well plates with appropriate growth medium and incubated at 37° C. overnight. After 24 h, cells on one plate (0 h plate) were treated with 30 μl/cavity of CTG solution (Promega Cell Titer Glo (catalogue #G755B and G756B)) and incubated at room temperature for 10 min, and luminescence was measured by means of a VICTOR V (Perkin Elmer), in order to determine cell viability on commencement of treatment. The cells on the test plate were treated with the compounds of the general formula (I) as and incubated at 37° C. for 72 h. The compounds were added to the cells by means of an HP D300 digital dispenser in a 10-step 2,5-fold dilution series. As control, the cells were treated with vehicle (DMSO at 0.3% final concentration). After 72 h, the cells were treated with 30 μl/cavity of CTG solution (Promega Cell Titer Glo (catalogue #G755B and G756B)) and incubated at room temperature for 10 min, and luminescence was measured by means of a VICTOR V (Perkin Elmer), in order to determine cell viability at the end of treatment. The percentage effect on cell growth and the IC50 derived therefrom were determined for each test substance using the values from the 0 h plate (=maximum inhibition) and the DMSO control (=minimum inhibition). The IC50 values were calculated using a 4-parameter fit.
(Cellular ATP, detected with luciferase, serves as a proxy for viable cell number.)

A further data set has as its system HeLa. The description is as above. In kind it is cell-based. The conditions noted are these: Homo sapiens, cervical cancer. On the procedure: as §1
For another data set, the system named is A549. The data set is described as above. In kind it is cell-based. The conditions noted are these: Homo sapiens, A549, lung adenocarcinoma. On the procedure:
as §1

Data set [2] concerns HeLa cells. The experiment in a line: Compound sensitivity testing in cell lines (cell viability, 48 h). The class given is cell-based, human. To be noted: 48 h. The procedure: (§2) 1500 NCI-H1734 or 1000 A549 cells were plated in a 384-well plate in 40 μl of RPMI supplemented with 10% Fetal Bovine Serum and 1% Pen/Strep. 24 hours after plating, a compound-library of 1924 small molecules was added at a concentration of 10 μM. Staurosporine was used a positive control for cytotoxicity at a concentration of 10 μM, and DMSO was used a negative control at a concentration of 1%. All compounds were incubated for 48 hours with indicated small molecules. After 48 hours, 384-well plates were removed from the incubator and allowed to cool to room temperature for 20 minutes. Cell viability was assessed by adding 40 μl of a 25% CELLTITERGLO® (Promega) in PBS with a THERMO COMBI™ or multichannel-pipette and incubated for 10 minutes. The luminescence signal was read using a Perkin-Elmer EnVision. Viability percentage was calculated by normalizing to DMSO controls.
1000 HeLa (DMEM), 1000 A549 (RPMI), 500 MCF-7 (DMEM), 4000 PC3 (F12-K), 1000 NCI-H2122 (RPMI) or 1500 NCI-H1563 (RPMI) cells were plated in a 384-well plate in 40 μl of corresponding growth media supplemented with 10% Fetal Bovine Serum. 24 hours after plating, indicated compounds were added at indicated concentrations and incubated for 48 hours. Cell viability was assessed as described in Compound library screening in NCI-H1734 and A549 cell lines.

A further data set has as its target T1, human full length PDE3A (Homo sapiens, UniProt Q14432).
T1 construct: Sf9 cells overexpressing human full length PDE3A (SB Drug Discovery, UK); purchased SB Drug Discovery, UK; host or cells: Sf9
The experiment in a line: PDE3A enzyme inhibition (3H-cAMP Scintillation Proximity Assay). In kind it is biochemical. The conditions noted are these: Sf9 cell extract, 60 min. On the procedure:
The commercially available ^3H-cAMP Scintillation Proximity Assay (SPA, Perkin Elmer) system was used for enzyme inhibition studies. For the determination of the in vitro effect of test substances on the PDE3A reactions 2 μl of the respective test compound solution in DMSO (serial dilutions) were placed in wells of microtiter plates (Isoplate-96/200W; Perkin Elmer). 50 μl of a dilution of PDE3A cell extract from Sf9 cells overexpressing human full length PDE3A (SB Drug Discovery, UK) in buffer A (50 mM Tris/HCl pH 7.5, 8.3 mM MgCl2, 1.7 mM EDTA, 0.2% BSA) was added. The dilution of the PDE3A cell extract was chosen such that the reaction kinetics was linear and less than 70% of the substrate was consumed (typical dilution 1:5000). The reaction was started by addition of 50 μl (0.025 μCi) of 1:2000 in buffer A w/o BSA diluted substrate [8-^3H] adenosine 3′, 5′-cyclic phosphate (1 μCi/μl; Perkin Elmer). After incubation at room temperature for 60 min, the reaction was stopped by addition of 25 μl of a suspension containing 18 mg/ml yttrium scintillation proximity beads (Perkin Elmer) in water. The microtiter plates were sealed and measured in a Microbeta scintillation counter (PerkinElmer Wallac). IC50 values were determined from sigmoidal curves by plotting percentage PDE3A activity vs log compound concentration.
In general terms: SPA uses beads or plates that emit light when radiolabelled molecules are held near them.

The target in a further data set is T2, PDE3B (Homo sapiens, UniProt Q13370).
T2 construct: Caliper (ran the assay)
Put plainly: PDE3B enzyme inhibition (reported with the 3H-cAMP SPA method). The class given is biochemical.

The test system of another data set is NCI-H1734. The experiment in a line: Compound library screening in NCI-H1734 and A549 cell lines. In kind it is cell-based, human. The conditions noted are these: NCI-H1734 versus A549, 48 h. The procedure: To identify anti-cancer compounds with cell-selective cytotoxic activity, an unbiased chemical screen was performed in two lung adenocarcinoma cell lines, A549 and NCI-H1734, both of which harbor oncogenic KRAS mutations and truncating STK11 mutations, and which were TP53 wild type and mutant (R273L), respectively. 1,924 compounds were screened from the Molecular Libraries Small-Molecule Repository validation set in the A549 and NCI-H1734 cell lines at a single concentration of 10 μM in 384-well format in duplicate. As a proxy for cellular viability, ATP content was measured after 48 hours of compound treatment.
as §2, with “After 48 hours, 384-well plates were removed from the incubator and allowed to cool to room temperature for 20 minutes.” left out

In data set [3] the test system is HeLa cells. Put plainly: Caspase activity in HeLa cells (Caspase-Glo). The class given is cell-based, human. To be noted: 48 h. On the procedure: Thus one aspect of the invention is the use of DNMDP for the treatment of lung adenocarcinoma and cervical cancer.
1000 HeLa cells were plated in 384-well plate in 40 μl of corresponding growth media supplemented with 10% Fetal Bovine Serum. 24 hours after plating, indicated compounds were added at indicated concentrations and incubated for 48 hours. Caspase-Glo from Promega was added according to the manufacturers recommendations and luminescence was determined as described in Compound library screening in NCI-H1734 and A549 cell lines.

The target of another data set is T3, PDE3A and SLFN12 complex (Homo sapiens, UniProt Q14432).
T3 construct: Immunoprecipitation of endogenous PDE3A in HeLa cells treated with DNMDP; host or cells: HeLa
Put plainly: DNMDP-induced PDE3A protein interactions by immunoprecipitation and immunoblotting. The class given is cell-based. To be noted: HeLa cells, 10 μM, 4 hours. The text has this:
Binding of DNMDP altered the composition of interacting proteins that were co-immunoprecipitated with PDE3A. […] These proteins specifically interacted with PDE3A in the presence of DNMDP, and were not observed in the trequinsin treated control, whereas a known PDE3B interactor, abhydrolase domain-containing protein 15 (ABHD15, Chavez et al., Biochem. Biophys. Res. Commun. 342, 1218-1222, 2006), was enriched in the immunoprecipitate from trequinsin-treated cells (FIG. 13C and FIG. 14C). The interaction promoted by DNMDP between PDE3A and both SIRT7 and SLFN12 was validated with affinity reagents. Immunoprecipitation of endogenous PDE3A in HeLa cells treated with DNMDP, but not DMSO or trequinsin, enhanced complex formation of ectopically expressed V5-tagged SIRT7 and SLFN12 with PDE3A, as evidenced by coimmunoprecipitation (FIG. 19). […] Without being bound to theory, PDE3A/SLFN12 complex formation correlated with cell killing (FIGS. 21A-21C).
HeLa cells were transfected with ORF overexpression constructs expressing V5-tagged SIRT7, V5-tagged SLFN12, or V5-tagged GFP. ORF expression constructs were obtained from the TRC (clone IDs: TRCN0000468231, TRCN0000476272, ccsbBroad304_99997). At 72 hours post transfection, cells were treated with 10 μM DNMDP or trequinsin for 4 hours followed by lysis using the ModRipa lysis buffer and immunoprecipitation of PDE3A. […]
Background: In western blotting, separated proteins are transferred to a membrane and probed.

Another data set concerns the target T4, PDE3A(677-1141) (Homo sapiens, UniProt Q14432).
T4 construct: purified PDE3A catalytic domain, PDE3A(677-1141)
Put plainly: Differential scanning fluorimetry (DSF) binding to purified PDE3A catalytic domain. The conditions noted are these: 5 μM PDE3A, 100 μM compound. The procedure:
Binding buffer: 20 mM Hepes pH 7.4, 100 μM TCEP, 1 mM MgCl2, 150 mM NaCl.

T2 sequence (Q13370 whole entry, species assumed): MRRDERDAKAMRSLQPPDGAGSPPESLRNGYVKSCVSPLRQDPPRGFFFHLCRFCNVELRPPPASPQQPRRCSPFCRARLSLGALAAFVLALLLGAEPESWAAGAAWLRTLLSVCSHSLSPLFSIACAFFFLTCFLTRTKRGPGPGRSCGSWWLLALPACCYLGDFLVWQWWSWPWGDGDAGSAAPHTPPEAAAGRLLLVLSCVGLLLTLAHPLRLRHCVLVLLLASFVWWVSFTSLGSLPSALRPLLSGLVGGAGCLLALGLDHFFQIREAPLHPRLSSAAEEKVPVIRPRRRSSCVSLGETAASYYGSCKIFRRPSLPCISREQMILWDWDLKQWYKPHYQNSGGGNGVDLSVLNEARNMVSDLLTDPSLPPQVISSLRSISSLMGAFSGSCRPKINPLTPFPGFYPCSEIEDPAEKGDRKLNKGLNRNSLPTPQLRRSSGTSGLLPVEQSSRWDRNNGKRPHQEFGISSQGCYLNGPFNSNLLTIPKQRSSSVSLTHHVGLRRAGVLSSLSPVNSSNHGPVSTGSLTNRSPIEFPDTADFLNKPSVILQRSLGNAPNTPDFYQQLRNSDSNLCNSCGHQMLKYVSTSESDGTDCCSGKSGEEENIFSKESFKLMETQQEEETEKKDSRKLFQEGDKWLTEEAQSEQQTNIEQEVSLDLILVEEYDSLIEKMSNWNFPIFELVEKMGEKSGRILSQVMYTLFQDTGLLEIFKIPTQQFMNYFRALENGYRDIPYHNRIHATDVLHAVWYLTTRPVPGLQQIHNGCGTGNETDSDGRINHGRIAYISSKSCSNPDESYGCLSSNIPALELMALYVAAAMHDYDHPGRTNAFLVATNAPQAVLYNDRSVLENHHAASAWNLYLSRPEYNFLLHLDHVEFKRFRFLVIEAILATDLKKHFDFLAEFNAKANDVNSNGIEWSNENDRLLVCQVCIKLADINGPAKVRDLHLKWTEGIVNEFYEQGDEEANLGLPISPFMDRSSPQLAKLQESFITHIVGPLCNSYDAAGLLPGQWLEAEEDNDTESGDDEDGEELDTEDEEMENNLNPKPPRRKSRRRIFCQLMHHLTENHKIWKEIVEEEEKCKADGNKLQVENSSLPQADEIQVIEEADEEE
T3 sequence (Q14432 whole entry): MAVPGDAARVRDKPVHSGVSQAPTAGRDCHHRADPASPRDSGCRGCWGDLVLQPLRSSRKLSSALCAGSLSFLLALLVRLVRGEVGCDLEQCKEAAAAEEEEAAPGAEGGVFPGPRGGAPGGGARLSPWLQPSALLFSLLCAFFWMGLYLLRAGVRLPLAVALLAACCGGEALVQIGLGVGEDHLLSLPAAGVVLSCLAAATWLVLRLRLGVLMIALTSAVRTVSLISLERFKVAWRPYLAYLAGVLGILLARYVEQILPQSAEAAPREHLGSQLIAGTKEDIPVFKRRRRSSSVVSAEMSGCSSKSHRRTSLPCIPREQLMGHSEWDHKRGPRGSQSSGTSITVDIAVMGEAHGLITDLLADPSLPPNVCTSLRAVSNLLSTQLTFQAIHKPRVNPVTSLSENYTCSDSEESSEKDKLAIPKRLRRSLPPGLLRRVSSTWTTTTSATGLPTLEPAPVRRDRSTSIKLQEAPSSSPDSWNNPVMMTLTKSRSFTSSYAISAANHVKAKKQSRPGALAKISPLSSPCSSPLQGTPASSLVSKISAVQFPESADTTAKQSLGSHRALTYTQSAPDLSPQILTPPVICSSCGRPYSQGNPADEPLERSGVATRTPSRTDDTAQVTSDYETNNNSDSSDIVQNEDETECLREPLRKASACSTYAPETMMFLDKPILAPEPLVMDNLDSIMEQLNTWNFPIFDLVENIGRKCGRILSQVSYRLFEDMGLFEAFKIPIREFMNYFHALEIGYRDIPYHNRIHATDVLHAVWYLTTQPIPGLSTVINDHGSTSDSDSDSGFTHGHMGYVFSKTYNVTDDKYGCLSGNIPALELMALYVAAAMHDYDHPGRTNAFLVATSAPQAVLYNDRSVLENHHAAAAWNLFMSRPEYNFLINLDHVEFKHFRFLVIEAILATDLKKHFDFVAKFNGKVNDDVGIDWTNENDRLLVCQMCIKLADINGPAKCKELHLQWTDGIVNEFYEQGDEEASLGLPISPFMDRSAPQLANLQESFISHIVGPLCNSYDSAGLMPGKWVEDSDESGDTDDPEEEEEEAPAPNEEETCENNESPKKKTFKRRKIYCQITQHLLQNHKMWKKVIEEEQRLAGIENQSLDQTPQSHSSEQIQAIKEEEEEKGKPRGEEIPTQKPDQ
T3 sequence (Q8IYM2 whole entry partner): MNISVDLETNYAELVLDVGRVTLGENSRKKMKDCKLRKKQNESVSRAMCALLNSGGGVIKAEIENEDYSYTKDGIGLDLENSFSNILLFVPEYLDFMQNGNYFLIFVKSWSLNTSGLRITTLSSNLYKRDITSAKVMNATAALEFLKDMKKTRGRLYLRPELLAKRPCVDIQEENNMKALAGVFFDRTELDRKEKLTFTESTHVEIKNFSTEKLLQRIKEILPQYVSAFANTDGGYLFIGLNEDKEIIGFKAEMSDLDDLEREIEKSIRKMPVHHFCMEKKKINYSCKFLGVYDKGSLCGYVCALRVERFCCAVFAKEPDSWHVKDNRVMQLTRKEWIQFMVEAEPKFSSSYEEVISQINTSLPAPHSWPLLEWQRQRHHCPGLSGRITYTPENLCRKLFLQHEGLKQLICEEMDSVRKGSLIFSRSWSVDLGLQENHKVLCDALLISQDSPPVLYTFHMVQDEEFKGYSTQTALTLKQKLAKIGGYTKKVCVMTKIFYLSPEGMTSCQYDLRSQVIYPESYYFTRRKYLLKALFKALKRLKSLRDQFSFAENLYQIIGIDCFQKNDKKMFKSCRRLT
T1 sequence (Q14432 whole entry): as the sequence (Q14432 whole entry) above
T4 sequence (Q14432 677-1141): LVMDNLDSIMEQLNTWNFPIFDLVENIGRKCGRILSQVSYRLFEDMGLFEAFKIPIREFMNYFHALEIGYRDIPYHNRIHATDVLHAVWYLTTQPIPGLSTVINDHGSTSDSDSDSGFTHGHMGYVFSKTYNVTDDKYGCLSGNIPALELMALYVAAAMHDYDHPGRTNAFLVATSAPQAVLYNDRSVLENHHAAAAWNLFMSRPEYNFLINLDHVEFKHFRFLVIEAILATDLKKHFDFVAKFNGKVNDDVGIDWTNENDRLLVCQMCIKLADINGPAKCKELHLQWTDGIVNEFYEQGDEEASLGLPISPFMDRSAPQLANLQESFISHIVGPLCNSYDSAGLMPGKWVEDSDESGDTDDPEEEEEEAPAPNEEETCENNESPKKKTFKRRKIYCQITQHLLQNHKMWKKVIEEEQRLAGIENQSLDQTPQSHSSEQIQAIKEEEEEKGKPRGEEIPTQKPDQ

For orientation: IC50 means the midpoint of a concentration-inhibition curve. One may read the EC50 as the concentration needed to bring the measured effect to its halfway point. A lower EC50 goes with greater potency. As to `C[C@@H]1CC(=O)NN=C1c1cc(F)c(N2CCOCC2)c(Cl)c1` [Compound 6, (5R)-6-[3-chloro-5-fluoro-4-(morpholin-4-yl)phenyl]-5-methyl-4,5-dihydropyridazin-3(2H)-one], the “mean metabolic stability (Fmax)” value in [1] stood at 93%. Moreover, the half-maximal inhibitory concentration (IC50) in the data set on SKMEL3 was 0.441 nM; in the data set with HeLa it was 0.327 nM; with A549, above 600 nM; against human full length PDE3A it was 2.4 nM; on PDE3B, 3.4 nM. Besides, the response in the data set with HeLa cells [2] (Homo sapiens) was half-maximal at 1.1 nM (EC50).
As usually defined, the Tm is the temperature at the midpoint of the melting transition. For the molecule `CCN(CC)c1ccc(C2=NNC(=O)CC2C)cc1[N+](=O)[O-]` (stereo not drawn) [DNMDP, 6-(4-(diethylamino)-3-nitrophenyl)-5-methyl-4,5-dihydropyridazin-3(2H)-one], the “selective toxicity in dose-response retest (in words)” value with NCI-H1734 was “specifically toxic to the NCI-H1734 cell line”. In addition, the “EC70 HeLa cell viability” value in the data set with HeLa cells [2] is recorded as 30 nM. The “caspase activity (apoptosis)” value in the data set on HeLa cells [3] is on record as “Caspase activity was detected”. Besides, on PDE3A and SLFN12 complex, the “PDE3A and SLFN12 complex formation” value was “induced PDE3A and SFLN12 complex formation”. For the same molecule, the Tm at PDE3A(677-1141) is 58.4 ± 0.0 °C.

These data come from patent US12053476B2, “Compounds, compositions and methods for cancer patient stratification and cancer treatment” (BAYER PHARMA AKTIENGESELLSCHAFT, priority 2016, dated 2024).
